How the values were obtained:
Format in all cases: in vivo
Chilo suppressalis = assay: Example B1: Chilo suppressalis (striped rice stemborer), artificial diet, L2 larvae; settings: 144 h, application rate of 200 ppm, 6 days after infestation, read-out: control in at least one of the three categories (mortality, anti-feedant effect, or growth inhibition)
Method in brief: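 Artificial diet was treated with aqueous test solutions made from 10,000 ppm DMSO stocks, dried, then infested with L2 larvae (6-8 per well). Mortality, anti-feeding effect and growth inhibition were scored against untreated samples 6 days after infestation, and control was counted when any category exceeded untreated.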

Euschistus heros = assay: Example B3: Euschistus heros (neotropical brown stink bug), soybean leaves, N2 nymphs; settings: 120 h, application rate of 200 ppm, 5 days after infestation, read-out: control in at least one of the two categories (mortality or growth inhibition)
Experimental: Example B3: Euschistus heros (Neotropical Brown Stink Bug)
Soybean leaves on agar in 24-well microtiter plates were sprayed with aqueous test solutions prepared from 10,000 ppm DMSO stock solutions. After drying the leaves were infested with N2 nymphs. The samples were assessed for mortality and growth inhibition in comparison to untreated samples 5 days after infestation.
The following compounds gave an effect of at least 80% control in at least one of the two categories (mortality or growth inhibition) at an application rate of 200 ppm: […]

Myzus persicae [1] = assay: Example B5: Myzus persicae (green peach aphid), feeding/contact activity; settings: 144 h, application rate of 200 ppm, 6 days after infestation
Experimental: Example B5: Myzus persicae (Green Peach Aphid):Feeding/Contact Activity
Sunflower leaf discs were placed onto agar in a 24-well microtiter plate and sprayed with aqueous test solutions prepared from 10,000 ppm DMSO stock solutions. After drying, the leaf discs were infested with an aphid population of mixed ages. The samples were assessed for mortality 6 days after infestation.

Myzus persicae [2] = assay: Example B6: Myzus persicae (green peach aphid), systemic activity, pea seedlings; settings: 144 h, test rate of 24 ppm, 6 days after placing seedlings into test solutions
Experimental: Example B6: Myzus persicae (Green Peach Aphid). Systemic Activity
Roots of pea seedlings infested with an aphid population of mixed ages were placed directly into aqueous test solutions prepared from 10,000 DMSO stock solutions. The samples were assessed for mortality 6 days after placing seedlings into test solutions.

Myzus persicae [3] = assay: Example B7: Myzus persicae (green peach aphid), intrinsic activity, sucrose solution 24-well; settings: 120 h, application rate of 12.5 ppm, 5 days after infestation, read-out: control (mortality)
Method in brief: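 Compounds from 10,000 ppm DMSO stocks were mixed into sucrose solution in wells at a rate of 12.5 ppm. Aphid-infested pea seedlings were placed on a Parafilm membrane over the solution, so aphids fed through it. Mortality was scored 5 days after infestation.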

Spodoptera littoralis = assay: Example B9: Spodoptera littoralis (Egyptian cotton leaf worm), cotton leaf discs, L1 larvae; settings: foliar, 72 h, application rate of 200 ppm, 3 days after infestation, read-out: control in at least one of the three categories (mortality, anti-feedant effect, or growth inhibition)
Method in brief: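 Cotton leaf discs on agar sprayed with aqueous test solutions from 10,000 ppm DMSO stocks, dried, then infested with five L1 larvae. Mortality, anti-feeding and growth inhibition scored against untreated samples 3 days after infestation.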

Diabrotica balteata = assay: Example B2: Diabrotica balteata (corn root worm), maize sprouts, L2 larvae; settings: 96 h, application rate of 200 ppm, 4 days after infestation, read-out: control in at least one of the two categories (mortality or growth inhibition)
Method in brief: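 Maize sprouts on agar sprayed with aqueous test solutions made from 10,000 ppm DMSO stocks, dried, then infested with 6 to 10 L2 larvae per well. Mortality and growth inhibition assessed versus untreated samples 4 days after infestation; application rate 200 ppm.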

Plutella xylostella = assay: Example B8: Plutella xylostella (diamond back moth), artificial diet 24-well, eggs; settings: 192 h, application rate of 200 ppm, 8 days after infestation, read-out: effect in at least one of the two categories (mortality or growth inhibition)
Method in brief: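 Artificial diet in 24-well plates treated with aqueous dilutions of DMSO stock (10,000 ppm stock) and dried, then infested with Plutella eggs. Mortality and growth inhibition scored versus untreated samples 8 days after infestation.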

[4] = tested on: Frankliniella occidentalis; assay: Example B4: Frankliniella occidentalis (western flower thrips), feeding/contact activity; settings: 168 h, application rate of 200 ppm, 7 days after infestation
Experimental: Example B4: Frankliniella occidentalis (Western Flower Thrips):Feeding/Contact Activity
Sunflower leaf discs were placed on agar in 24-well microtiter plates and sprayed with aqueous test solutions prepared from 10,000 DMSO stock solutions. After drying the leaf discs were infested with a Frankliniella population of mixed ages. The samples were assessed for mortality 7 days after infestation.

COc1cc(C(F)(F)F)ncc1NC(=O)N[C@@H](C)c1ncnn1-c1ncccn1 [Example P348, 1-[4-methoxy-6-(trifluoromethyl)-3-pyridyl]-3-[(1S)-1-(2-pyrimidin-2-yl-1,2,4-triazol-3-yl)ethyl]urea]
≥ 80%: percent control (mortality, anti-feedant effect or growth inhibition) at 200 ppm (Chilo suppressalis) | percent control (mortality or growth inhibition) at 200 ppm (Euschistus heros) | mortality at 200 ppm (Myzus persicae [1]) | mortality at 24 ppm (Myzus persicae [2]) | mortality at 12.5 ppm (Myzus persicae [3]) | percent control (mortality, anti-feedant effect or growth inhibition) at 200 ppm (Spodoptera littoralis)

C[C@H](NC(=O)N1CCc2cc(C(F)(F)F)ncc21)c1ncnn1-c1ncccn1 [Example P172, N-[(1S)-1-(2-pyrimidin-2-yl-1,2,4-triazol-3-yl)ethyl]-5-(trifluoromethyl)-2,3-dihydropyrrolo[2,3-c]pyridine-1-carboxamide]
≥ 80%: percent control (mortality, anti-feedant effect or growth inhibition) at 200 ppm (Chilo suppressalis) | percent control (mortality or growth inhibition) at 200 ppm (Diabrotica balteata) | percent control (mortality or growth inhibition) at 200 ppm (Euschistus heros) | mortality at 200 ppm (Myzus persicae [1]) | mortality at 24 ppm (Myzus persicae [2]) | mortality at 12.5 ppm (Myzus persicae [3]) | percent effect (mortality or growth inhibition) at 200 ppm (Plutella xylostella) | percent control (mortality, anti-feedant effect or growth inhibition) at 200 ppm (Spodoptera littoralis)

C[C@@H](c1ncnn1-c1ncccn1)N(C)C(=O)Nc1cnc(C(F)(F)F)cc1Cl [Example P397, 3-[4-chloro-6-(trifluoromethyl)-3-pyridyl]-1-methyl-1-[(1S)-1-(2-pyrimidin-2-yl-1,2,4-triazol-3-yl)ethyl]urea]
≥ 80%: percent control (mortality, anti-feedant effect or growth inhibition) at 200 ppm (Chilo suppressalis) | percent control (mortality or growth inhibition) at 200 ppm (Euschistus heros) | mortality at 24 ppm (Myzus persicae [2]) | mortality at 12.5 ppm (Myzus persicae [3]) | percent effect (mortality or growth inhibition) at 200 ppm (Plutella xylostella)

C[C@H](NC(=O)N(C)c1cnc(C(F)(F)F)cc1Br)c1ncnn1-c1ncccn1 [Example P273, 1-[4-bromo-6-(trifluoromethyl)-3-pyridyl]-1-methyl-3-[(1S)-1-(2-pyrimidin-2-yl-1,2,4-triazol-3-yl)ethyl]urea]
≥ 80%: percent control (mortality, anti-feedant effect or growth inhibition) at 200 ppm (Chilo suppressalis) | percent control (mortality or growth inhibition) at 200 ppm (Euschistus heros) | mortality at 24 ppm (Myzus persicae [2]) | mortality at 12.5 ppm (Myzus persicae [3]) | percent effect (mortality or growth inhibition) at 200 ppm (Plutella xylostella) | percent control (mortality, anti-feedant effect or growth inhibition) at 200 ppm (Spodoptera littoralis)

C[C@H](NC(=O)N(C)c1cnc(C(F)(F)F)cc1Cl)c1ncnn1-c1ncccn1 [Example P235, 1-[4-chloro-6-(trifluoromethyl)-3-pyridyl]-1-methyl-3-[(1S)-1-(2-pyrimidin-2-yl-1,2,4-triazol-3-yl)ethyl]urea]
≥ 80%: percent control (mortality, anti-feedant effect or growth inhibition) at 200 ppm (Chilo suppressalis) | percent control (mortality or growth inhibition) at 200 ppm (Euschistus heros) | mortality at 200 ppm [4] | mortality at 200 ppm (Myzus persicae [1]) | mortality at 24 ppm (Myzus persicae [2]) | mortality at 12.5 ppm (Myzus persicae [3]) | percent effect (mortality or growth inhibition) at 200 ppm (Plutella xylostella)
